Format in all cases: cell-based
Assay [1] concerns the target T1, CaAto1 (Ato1-GFP) (Candida albicans, UniProt A0A1D8PHP8).
T1 construct: gene FRP3; full length with C-terminal GFP at both native loci, in C. albicans cells (ATO1-GFP/ATO1-GFP)
Briefly: […]lactate uptake in cells, against ato1 deletion strain. The note with it: pH 6.0, 30 °C, 1-24 mM; H+ symport; labelled compound.

For assay [2], the target named is T1, CaAto1 (Ato1-GFP). In words: competition of […]acetate uptake in cells. The note with it: read-out: % inhibition at 10 mM.
The target in assay [3] is T1, CaAto1 (Ato1-GFP). Briefly: competition of […]acetate uptake in cells. The note with it: 0.1 mM [14C]acetate, 10 mM competitor, pH 6.0, 30 °C, collective statement for most carboxylates, estimated from one concentration.

Read-outs that look alike come from different tables or passages of the source.

T1 sequence (A0A1D8PHP8 entry or part of it): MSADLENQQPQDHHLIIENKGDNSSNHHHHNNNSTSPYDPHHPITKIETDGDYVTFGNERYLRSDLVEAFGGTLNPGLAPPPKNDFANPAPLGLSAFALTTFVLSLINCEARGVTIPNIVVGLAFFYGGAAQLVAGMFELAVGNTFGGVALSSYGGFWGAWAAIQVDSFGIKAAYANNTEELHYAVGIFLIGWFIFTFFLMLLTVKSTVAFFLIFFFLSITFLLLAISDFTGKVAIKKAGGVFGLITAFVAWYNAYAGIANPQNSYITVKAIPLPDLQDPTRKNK

Turning to `C[C@H](O)C(=O)O` [[14C]lactate], the “[14C]lactate uptake in cells, against ato1 deletion strain” value at CaAto1 (Ato1-GFP) [1] is recorded as “practically no lactate uptake was recorded in ato1Δ/Δ or ato1-10Δ/Δ strains”.
Consider `CCCC(=O)O` [butyrate], for which the inhibition at 10000 µM on CaAto1 (Ato1-GFP) [2] is roughly 50%.
As for `O=C(O)CC(O)(CC(=O)O)C(=O)O` [citrate], the Ki at CaAto1 (Ato1-GFP) [3] is greater than 10 mM.
For the compound `O=CO` [formate], the Ki on CaAto1 (Ato1-GFP) [3] is greater than 10 mM.
Regarding `C[C@H](O)C(=O)O` [lactate], on CaAto1 (Ato1-GFP) [3] (read-out: Ki), the Ki was greater than 10 mM.
As for `O=C(O)C[C@H](O)C(=O)O` [malate], on CaAto1 (Ato1-GFP) [3], the Ki is greater than 10 mM.
For `CC(=O)C(=O)O` [pyruvate], the Ki at CaAto1 (Ato1-GFP) [3] (read-out: Ki) was greater than 10 mM.
Regarding `O=C(O)CCC(=O)O` [succinate], the Ki on CaAto1 (Ato1-GFP) [3] was greater than 10 mM.

Values taken from PMC13316224, “Expansion, functional diversification, and gene fusion events in the Ato protein family” (iScience, 2026).
